Results published in ChEMBL document CHEMBL1156067, “Pyrimidine-based antagonists of h-MCH-R1 derived from ATC0175: in vitro profiling and in vivo evaluation” (Bioorg Med Chem Lett, 2009).
Blank lines part the entries; values can stand above or below the compound they belong to. Calls of active or inactive are those of the source. The calls are words filed in the database; no cut-off is given here.

Assays:
[1] = target: T1, Melanin-concentrating hormone receptor 1 (Homo sapiens, UniProt Q99705); test: Antagonist activity at CART form of human MCH1 receptor expressed in HEK293 cells coexpressing Galphaq assessed as inhibition of MCH-induced intracellular calcium level by FLIPR assay; format: functional, cell-based
Target sequence in this assay (Q99705 whole entry, looked up): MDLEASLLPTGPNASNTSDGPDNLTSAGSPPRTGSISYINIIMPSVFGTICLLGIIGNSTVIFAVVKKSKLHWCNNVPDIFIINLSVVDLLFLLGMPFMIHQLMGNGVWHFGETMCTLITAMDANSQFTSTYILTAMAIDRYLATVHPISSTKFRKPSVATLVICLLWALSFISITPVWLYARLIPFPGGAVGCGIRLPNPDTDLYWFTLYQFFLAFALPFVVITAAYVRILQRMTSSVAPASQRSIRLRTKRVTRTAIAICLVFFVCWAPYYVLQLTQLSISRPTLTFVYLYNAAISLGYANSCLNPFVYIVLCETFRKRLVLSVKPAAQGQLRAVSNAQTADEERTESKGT

[2] = target: T1, Melanin-concentrating hormone receptor 1; test: Antagonist activity at CART form of human MCH1 receptor expressed in HEK293 cells coexpressing Galphaq assessed as inhibition of MCH-induced intracellular calcium level up to 10 uM by FLIPR assay; format: functional, cell-based
Target sequence in this assay (Q99705 whole entry): as the sequence (Q99705 whole entry, looked up) above

[3] = Plasma concentration in Sprague-Dawley rat at 10 mg/kg, po after 4 hrs; format: ADME, organism-based; set-up: dose 10 mg/kg, route oral
Rattus norvegicus [4] = test: Reduction in body weight in diet-induced obese Wistar rat chronic feeding model at 5 mg/kg, po once daily after 28 days relative to control; format: functional; set-up: scale not given: the % may be the effect or the level left
[5] = Drug level in Sprague-Dawley rat brain at 10 mg/kg, po after 4 hrs; format: ADME, organism-based; set-up: dose 10 mg/kg, route oral
[6] = target: T2, Alpha-2A adrenergic receptor (Homo sapiens, UniProt P08913); test: Displacement of [3H]MK-912 from human adrenergic alpha2A receptor
T2 sequence (P08913 whole entry): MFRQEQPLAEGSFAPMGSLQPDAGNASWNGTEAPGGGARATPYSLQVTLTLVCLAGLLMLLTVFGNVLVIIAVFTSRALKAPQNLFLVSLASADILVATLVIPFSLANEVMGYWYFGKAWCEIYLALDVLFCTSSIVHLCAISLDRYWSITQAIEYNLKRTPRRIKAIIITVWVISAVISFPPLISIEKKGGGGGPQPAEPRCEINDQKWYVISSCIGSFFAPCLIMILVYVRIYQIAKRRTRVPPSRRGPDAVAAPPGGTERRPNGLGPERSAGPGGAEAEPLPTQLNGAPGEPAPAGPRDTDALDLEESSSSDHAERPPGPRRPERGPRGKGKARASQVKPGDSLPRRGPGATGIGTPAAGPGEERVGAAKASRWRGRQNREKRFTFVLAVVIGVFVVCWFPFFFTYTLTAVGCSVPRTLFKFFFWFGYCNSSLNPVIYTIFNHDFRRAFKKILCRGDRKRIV

[7] = target: 5-hydroxytryptamine receptor 2B (Homo sapiens, UniProt P41595); test: Displacement of [3H]rauwolsine from human 5HT2B receptor
Chain of 5-hydroxytryptamine receptor 2B (P41595 whole entry): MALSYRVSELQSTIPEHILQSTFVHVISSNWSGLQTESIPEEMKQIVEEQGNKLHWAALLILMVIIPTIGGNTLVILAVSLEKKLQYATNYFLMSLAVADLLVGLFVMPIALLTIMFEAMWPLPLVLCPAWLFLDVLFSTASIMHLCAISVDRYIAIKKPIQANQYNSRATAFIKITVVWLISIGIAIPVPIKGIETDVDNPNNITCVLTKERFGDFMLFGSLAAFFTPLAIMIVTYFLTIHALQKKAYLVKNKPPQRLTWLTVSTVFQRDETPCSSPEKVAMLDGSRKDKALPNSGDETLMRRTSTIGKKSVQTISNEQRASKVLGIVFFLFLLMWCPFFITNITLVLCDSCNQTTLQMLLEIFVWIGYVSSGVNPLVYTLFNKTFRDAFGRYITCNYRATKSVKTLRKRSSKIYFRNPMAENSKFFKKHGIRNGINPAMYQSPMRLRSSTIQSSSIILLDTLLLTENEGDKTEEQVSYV

Rattus norvegicus [8] = test: Reduction in food intake in diet-induced obese Wistar rat chronic feeding model at 5 mg/kg, po once daily after 28 days; format: functional, organism-based; set-up: dose 5 mg/kg
Rattus norvegicus [9] = test: Reduction in body weight in diet-induced obese Wistar rat chronic feeding model at 1 mg/kg, po once daily after 28 days; format: functional, organism-based; set-up: dose 1 mg/kg
Rattus norvegicus [10] = test: Reduction in body weight in diet-induced obese Wistar rat chronic feeding model at 15 mg/kg, po once daily up to 14 days measured after recovery period; format: functional, organism-based; set-up: dose 15 mg/kg
Rattus norvegicus [11] = test: Reduction in food intake in diet-induced obese Wistar rat chronic feeding model at 15 mg/kg, po once daily after 3 days; format: functional, organism-based; set-up: dose 15 mg/kg
[12] = target: T3, 5-hydroxytryptamine receptor 1A (Homo sapiens, UniProt P08908); test: Inhibition of human 5HT1A
T3 sequence (P08908 whole entry): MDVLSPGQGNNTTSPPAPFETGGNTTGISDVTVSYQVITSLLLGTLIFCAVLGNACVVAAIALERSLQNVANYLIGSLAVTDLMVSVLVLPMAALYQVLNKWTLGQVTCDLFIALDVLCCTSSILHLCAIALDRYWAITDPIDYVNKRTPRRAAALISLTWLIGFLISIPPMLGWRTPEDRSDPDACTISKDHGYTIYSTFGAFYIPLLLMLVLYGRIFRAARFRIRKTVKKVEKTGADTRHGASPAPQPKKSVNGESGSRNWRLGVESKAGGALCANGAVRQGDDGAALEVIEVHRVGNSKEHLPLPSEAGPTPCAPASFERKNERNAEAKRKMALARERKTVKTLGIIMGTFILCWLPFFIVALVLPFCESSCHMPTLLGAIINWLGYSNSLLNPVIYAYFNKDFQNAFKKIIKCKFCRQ

Histamine H1 receptor = Histamine H1 receptor (Homo sapiens, UniProt P35367); test: Displacement of [3H]pyrilamine from human histamine H1 receptor
Chain of Histamine H1 receptor (P35367 whole entry): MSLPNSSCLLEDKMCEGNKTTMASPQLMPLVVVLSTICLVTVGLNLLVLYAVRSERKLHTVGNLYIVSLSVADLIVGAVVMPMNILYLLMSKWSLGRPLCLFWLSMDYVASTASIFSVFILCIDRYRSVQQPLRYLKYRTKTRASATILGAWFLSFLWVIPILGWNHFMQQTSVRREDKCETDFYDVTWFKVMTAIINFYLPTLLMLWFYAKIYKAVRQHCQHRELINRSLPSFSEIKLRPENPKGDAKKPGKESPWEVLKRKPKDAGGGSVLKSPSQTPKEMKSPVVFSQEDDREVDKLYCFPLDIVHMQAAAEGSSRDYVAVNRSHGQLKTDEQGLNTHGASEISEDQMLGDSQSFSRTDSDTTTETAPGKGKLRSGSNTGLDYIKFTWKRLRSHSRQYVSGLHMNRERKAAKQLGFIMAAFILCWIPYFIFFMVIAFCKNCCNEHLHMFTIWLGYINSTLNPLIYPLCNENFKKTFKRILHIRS

Rattus norvegicus [13] = test: Reduction in food intake in diet-induced obese Wistar rat chronic feeding model at 1 mg/kg, po once daily after 28 days; format: functional, organism-based; set-up: dose 1 mg/kg
Rattus norvegicus [14] = test: Reduction in food intake in diet-induced obese Wistar rat chronic feeding model at 15 mg/kg, po once daily up to 14 days measured after recovery period; format: functional, organism-based; set-up: dose 15 mg/kg
Rattus norvegicus [15] = test: Reduction in food intake in diet-induced obese Wistar rat chronic feeding model at 10 mg/kg, po once daily after 2 days; format: functional, organism-based; set-up: dose 10 mg/kg
Rattus norvegicus [16] = test: Toxicity in rat at 100 mg/kg, po once daily after 14 days; conditions: in vivo, 336 h
Rattus norvegicus [17] = test: Reduction in body weight in diet-induced obese Wistar rat chronic feeding model at 15 mg/kg, po once daily after 14 days relative to control; format: functional; set-up: scale not given: the % may be the effect or the level left
Rattus norvegicus [18] = test: Reduction in food intake in diet-induced obese Wistar rat chronic feeding model at 10 mg/kg, po once daily up to 28 days measured after 2 weeks of recovery period; format: functional, organism-based; set-up: dose 10 mg/kg
[19] = Drug level in Sprague-Dawley rat brain at 10 mg/kg, po after 2 hrs; format: ADME, organism-based; set-up: dose 10 mg/kg, route oral
[20] = Plasma concentration in Sprague-Dawley rat at 10 mg/kg, po after 2 hrs; format: ADME, organism-based; set-up: dose 10 mg/kg, route oral
Rattus norvegicus [21] = test: Reduction in body weight in diet-induced obese Wistar rat chronic feeding model at 10 mg/kg, po once daily up to 28 days measured after 2 weeks of recovery period; format: functional, organism-based; set-up: dose 10 mg/kg
[22] = target: T4, Alpha-1A adrenergic receptor (Homo sapiens, UniProt P35348); test: Displacement of [3H]prazosin from human adrenergic alpha1A receptor
T4 sequence (P35348 whole entry): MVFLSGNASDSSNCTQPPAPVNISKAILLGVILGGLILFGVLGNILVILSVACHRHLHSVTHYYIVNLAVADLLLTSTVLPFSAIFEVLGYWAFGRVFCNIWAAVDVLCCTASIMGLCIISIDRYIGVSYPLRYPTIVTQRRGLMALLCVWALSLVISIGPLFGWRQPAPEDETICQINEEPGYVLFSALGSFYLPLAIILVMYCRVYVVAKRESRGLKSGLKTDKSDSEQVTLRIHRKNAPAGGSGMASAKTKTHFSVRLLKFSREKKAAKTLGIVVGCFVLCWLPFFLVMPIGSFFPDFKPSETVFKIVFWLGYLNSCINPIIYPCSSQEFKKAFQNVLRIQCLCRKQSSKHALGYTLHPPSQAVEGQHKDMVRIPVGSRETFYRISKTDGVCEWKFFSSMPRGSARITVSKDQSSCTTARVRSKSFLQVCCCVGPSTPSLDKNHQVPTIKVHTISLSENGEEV

Rattus norvegicus [23] = test: Reduction in body weight in diet-induced obese Wistar rat chronic feeding model at 10 mg/kg, po once daily after 28 days relative to control; format: functional; set-up: scale not given: the % may be the effect or the level left

IC50 [1]: 46 nM
Compound: CCN(C)c1nc(N[C@H]2CC[C@@H](NC(=O)c3ccc(F)c(F)c3)CC2)ncc1C

IC50 [1]: 600 nM
Compound: Cc1cnc(N[C@H]2CC[C@@H](CNC(=O)c3cc(C(F)(F)F)cc(C(F)(F)F)c3)CC2)nc1N

IC50 [1]: 2.5 nM
Compound: Cc1cc(N(C)C)nc(N[C@H]2CC[C@@H](NC(=O)c3ccc(F)c(F)c3)CC2)n1

Activity [2]: inactive
Compound: CCNc1nc(N[C@H]2CC[C@@H](CNC(=O)c3cc(C(F)(F)F)cc(C(F)(F)F)c3)CC2)ncc1C

concentration at 4 h [3]: 63 ng/mL | concentration at 4 h [5]: 10 ng/g | IC50 [6]: 310 nM | IC50 [7]: 3100 nM | IC50 [12]: 4800 nM | IC50 (Histamine H1 receptor): > 10000 nM | IC50 [1]: 5 nM | concentration at 2 h [19]: 9 ng/g | concentration at 2 h [20]: 50 ng/mL | IC50 [22]: 3200 nM
Compound: Cc1cnc(N[C@H]2CC[C@@H](CNC(=O)c3cc(C(F)(F)F)cc(C(F)(F)F)c3)CC2)nc1N(C)C
Activity (Rattus norvegicus [4]): -5.4% | Activity (Rattus norvegicus [8]): inactive | Activity (Rattus norvegicus [9]): inactive | Activity (Rattus norvegicus [10]): inactive | Activity (Rattus norvegicus [11]): Active | Activity (Rattus norvegicus [13]): inactive | Activity (Rattus norvegicus [14]): inactive | Activity (Rattus norvegicus [15]): Active | Activity (Rattus norvegicus [16]): Non-toxic | Activity (Rattus norvegicus [17]): >15% | Activity (Rattus norvegicus [18]): inactive | Activity (Rattus norvegicus [21]): inactive | Activity (Rattus norvegicus [23]): 17%

IC50 [1]: 200 nM
Compound: CNc1nc(N[C@H]2CC[C@@H](CNC(=O)c3cc(C(F)(F)F)cc(C(F)(F)F)c3)CC2)ncc1C

IC50 [1]: 7.6 nM
Compound: COc1cccc(C(=O)N[C@H]2CC[C@@H](Nc3nc(C)cc(N(C)C)n3)CC2)c1

IC50 [1]: 230 nM
Compound: Cc1cc(N(C)C)nc(N[C@H]2CC[C@@H](NC(=O)c3ccc(OC(F)(F)F)cc3)CC2)n1

IC50 [1]: 2 nM
Compound: Cc1cnc(N[C@H]2CC[C@@H](NC(=O)c3ccc(F)c(F)c3)CC2)nc1N(C)C

IC50 [6]: 210 nM | IC50 [7]: 320 nM | IC50 (Histamine H1 receptor): 920 nM | IC50 [1]: 120 nM | IC50 [22]: 3600 nM
Compound: Cc1cnc(N[C@H]2CC[C@@H](CNC(=O)c3ccc(F)c(F)c3)CC2)nc1N(C)C

IC50 [1]: 58 nM
Compound: CN(C)c1cc(N(C)C)nc(N[C@H]2CC[C@@H](NC(=O)c3ccc(F)c(F)c3)CC2)n1

Activity [2]: inactive
Compound: CCNc1nc(N[C@H]2CC[C@@H](NC(=O)c3ccc(F)c(F)c3)CC2)ncc1C

Activity [2]: inactive
Compound: CN(C)c1ccnc(N[C@H]2CC[C@@H](NC(=O)c3ccc(F)c(F)c3)CC2)n1

IC50 [1]: 210 nM
Compound: Cc1cc(N(C)C)nc(N[C@H]2CC[C@@H](CNC(=O)c3ccc(F)c(F)c3)CC2)n1

IC50 [6]: 730 nM | IC50 [7]: 170 nM | IC50 (Histamine H1 receptor): 800 nM | IC50 [1]: 16 nM | IC50 [22]: 3000 nM
Compound: Cc1cc(N(C)C)nc(N[C@H]2CC[C@@H](NC(=O)c3ccc(Cl)cc3)CC2)n1

IC50 [1]: 5.5 nM
Compound: CN(C)CC1CCc2cc(NC(=O)c3ccc(-c4ccc(F)cc4)cc3)ccc2C1 (configuration not stated)

Activity [2]: inactive
Compound: CNc1nc(N[C@H]2CC[C@@H](NC(=O)c3ccc(F)c(F)c3)CC2)ncc1C

IC50 [6]: 580 nM | IC50 [7]: 31 nM | IC50 (Histamine H1 receptor): 1600 nM | IC50 [1]: 2.9 nM | IC50 [22]: 2790 nM
Compound: Cc1cccc(C(=O)N[C@H]2CC[C@@H](Nc3ncc(C)c(N(C)C)n3)CC2)c1
